For 20 molecules, IC50 results are on record in patent publication US10144732B2 (BIOGEN MA INC., priority 2014, dated 2018).

In general, IC50 refers to the point on the concentration scale where inhibition reaches its midpoint.

Counter-ions that a name gives are not always drawn. Some results are limits rather than exact numbers.

The test concerns the target T1, Human ATX protein (Homo sapiens, UniProt Q13822).
T1 construct: made in house
Kind of test: ATX biochemical assay (FRET, FS-3 substrate). The following applies: FRET assay, FS-3 2 μM, ATX 1.0 μg/mL, 30 minutes preincubation, 2 hours reaction at room temperature; read-out: IC50. The source says:
ATX (Autotaxin) is a 125 KDa glycoprotein with lysophospholipase D (LPLD) activity that generates the bioactive lipid lysophosphatidic acid (LPA) from lysophosphatidylcholine (LPC). The ATX biochemical assay utilizes a FRET (fluorescence resonance energy transfer) technology platform. The fluorescence signal of FRET substrate FS-3 is quenched due to intra-molecular FRET of a fluorophore to a non-fluorescing quencher (Ferguson, C. G., et al., Org Lett. 2006 May 11; 8(10): 2023-2026, which is incorporated by reference in its entirety). ATX catalyzes the hydrolysis of the substrate which separates the dabsyl quencher from the fluorescein reporter, which becomes fluorescent. The reaction is monitored by a SpectraMax M5 (Molecular Devices, Sunnyvale, Calif.) with at excitation wavelength 485 nm and emission wavelength […].
Fatty acid free-BSA (Sigma A8806): 10 mg/mL in H2O, stored at 4° C.
2×ATX assay buffer: 100 mM Tris, 280 mM NaCl, 10 mM KCl, 2 mM CaCl2, 2 mM MgCl2, pH 7.4.
Human ATX protein: expressed and purified in house. Stored at −80° C.
Substrate FS-3 (Echelon, L-2000): 100 μg in 77.74 μL H2O (1 mM stock), stored at −20° C.
384-well flat bottom plates—Corning #3575.
Compound dilution—All compounds were provided at 10 mM in 100% DMSO. In the first well, 2 μL of 10 mM compound was added to 78 μL of DMSO (1:40 dilution). In subsequent wells 3-fold dilution (total 10 dilutions) were performed.
1×ATX assay buffer was made up with a final concentration of 1 mg/mL fatty acid free-BSA using 2×ATX assay buffer, 10 mg/ml fatty acid free-BSA and ddH2O.
[…]. The final concentration of ATX in the reaction as 1.0 μg/mL.
2 μL per well of compounds was transferred to provide the desired concentration. The plate was centrifuged, then incubated at room temperature for 30 minutes on the shaker.
FS-3 was diluted with 1×ATX assay buffer to a concentration of FS-3 of 10 μM (5×). Then, 10 μL was added per well to the assay plate. The final concentration of FS-3 in the reaction was 2 μM. The plate was centrifuged. The plate was kept shaking at room temperature for 2 hours. Because FS-3 substrate is light sensitive, plates were kept covered and protected from light.
Fluorescence was measured using SpectraMax M5 (excitation at 485 nm/emission at 538 nm, top read).
As to `O=C(NC12CCC(C(=O)O)(CC1)CC2)N1CCc2c(C(F)(F)F)nn(Cc3ccc(Cl)cc3F)c2C1` [Example 5-8, 4-(1-(4-Chloro-2-fluorobenzyl)-3-(trifluoromethyl)-4,5,6,7-tetrahydro-1H-pyrazolo[3,4-c]pyridine-6-carboxamido)bicyclo[2.2.2]octane-I-carboxylic acid], the IC50 was at most 100 nM. The same measure for `CCOC(=O)[C@H]1CC[C@H](CC(=O)N2CCc3c(C(F)(F)F)nn(Cc4cc(F)cc(Cl)c4)c3C2)CC1` [Example 2-3, trans-Ethyl 4-(2-(1-(3-chloro-5-fluorobenzyl)-3-(trifluoromethyl)-4,5-dihydro-1H-pyrazolo[3,4-c]pyridin-6(7H)-yl)-2-oxoethyl)cyclohexanecarboxylate]: at most 100 nM.

In the case of `O=C(CC1CC(N2CCCC2)C1)N1CCc2c(C(F)(F)F)nn(Cc3ccc(F)cc3)c2C1` (centres unmarked) [Example 22-3, 1-(1-(4-Fluorobenzyl)-3-(trifluoromethyl)-4,5-dihydro-1H-pyrazolo[3,4-c]pyridin-6(7H)-yl)-2-(3-(pyrrolidin-1-yl)cyclobutyl)ethanone TFA salt], the IC50 is at most 100 nM.

As for `O=C(C[C@H]1CC[C@H](C(=O)O)CC1)N1CCc2c(CO)nn(Cc3ccc(F)cc3)c2C1` [Example 5-45, trans-4-(2-(1-(4-Fluorobenzyl)-3-(hydroxymethyl)-4,5-dihydro-1H-pyrazolo[3,4-c]pyridin-6(7H)-yl)-2-oxoethyl)cyclohexanecarboxylic acid], the IC50 is at most 100 nM. As for `CC1CC(CC(=O)N2CCc3c(C(F)(F)F)nn(Cc4ccc(Cl)cc4F)c3C2)CCN1C` (centres unmarked) [Example 10-2, 1-(1-(4-Chloro-2-fluorobenzyl)-3-(trifluoromethyl)-4,5-dihydro-1H-pyrazolo[3,4-c]pyridin-6(7H)-yl)-2-(1,2-dimethylpiperidin-4-yl)ethanone TFA salt], the figure is at most 100 nM; as for `O=C(O)C1CC2(C1)CN(CC(=O)N1CCc3c(C(F)(F)F)nn(Cc4ccc(Cl)cc4F)c3C1)C2` [Example 13-21, 2-(2-(1-(4-Chloro-2-fluorobenzyl)-3-(trifluoromethyl)-4,5-dihydro-1H-pyrazolo[3,4-c]pyridin-6(7H)-yl)-2-oxoethyl)-2-azaspiro[3.3]heptane-6-carboxylic acid TFA salt], at most 100 nM. For the molecule `N[C@H]1CC[C@@H](CC(=O)N2CCc3c(C(F)(F)F)nn(Cc4ccc(Cl)cc4F)c3C2)CC1` [Example 9-17, 2-(cis-4-Aminocyclohexyl)-1-(1-(4-chloro-2-fluorobenzyl)-3-(trifluoromethyl)-4,5-dihydro-1H-pyrazolo[3,4-c]pyridin-6(7H)-yl)ethanone TFA salt], the IC50 is at most 100 nM. The same measure for `CCOC(=O)[C@H]1CC[C@H](CC(=O)N2CCc3c(-c4ccccc4)nn(Cc4ccc(F)cc4)c3C2)CC1` [Example 1-44, trans-Ethyl 4-(2-(1-(4-fluorobenzyl)-3-phenyl-4,5-dihydro-1H-pyrazolo[3,4-c]pyridin-6(7H)-yl)-2-oxoethyl)cyclohexanecarboxylate]: at most 100 nM; for `COC(=O)N1CCCC(CC(=O)N2CCc3c(C(F)(F)F)nn(Cc4ccc(F)cc4)c3C2)C1` (centres unmarked) [Example 16-1, Methyl 3-(2-(1-(4-fluorobenzyl)-3-(trifluoromethyl)-4,5-dihydro-1H-pyrazolo[3,4-c]pyridin-6(7H)-yl)-2-oxoethyl)piperidine-1-carboxylate]: at most 100 nM.

In the case of `CN1CCC(CC(=O)N2CCc3c(C(F)(F)F)nn(Cc4ccc(Cl)cc4F)c3C2)CC1(C)C` (centres unmarked) [Example 10-3, 1-(1-(4-Chloro-2-fluorobenzyl)-3-(trifluoromethyl)-4,5-dihydro-1H-pyrazolo[3,4-c]pyridin-6(7H)-yl)-2-(1,2,2-trimethylpiperidin-4-yl)ethanone TFA salt], the IC50 was at most 100 nM. As to `O=C(CC1CCN(c2ccncc2)CC1)N1CCc2c(C(F)(F)F)nn(Cc3ccc(F)cc3)c2C1` [Example 18-4, 1-(1-(4-Fluorobenzyl)-3-(trifluoromethyl)-4,5-dihydro-1H-pyrazolo[3,4-c]pyridin-6(7H)-yl)-2-(1-(pyridin-4-yl)piperidin-4-yl)ethanone TFA salt], the IC50 is at most 100 nM. The same measure for `O=C(CCc1nnn[nH]1)N1CCc2c(C(F)(F)F)nn(Cc3ccc(F)cc3)c2C1` [Example 1-32, 1-(1-(4-Fluorobenzyl)-3-(trifluoromethyl)-4,5-dihydro-1H-pyrazolo[3,4-c]pyridin-6(7H)-yl)-3-(1H-tetrazol-5-yl)propan-1-one]: at most 100 nM; for `CCOC(=O)C1CCC(OC(=O)N2CCc3c(C(F)(F)F)nn(Cc4ccc(Cl)cc4F)c3C2)CC1` (centres unmarked) [Example 4-1, 4-(Ethoxycarbonyl)cyclohexyl1-(4-chloro-2-fluorobenzyl)-3-(trifluoromethyl)-4,5-dihydro-1H-pyrazolo[3,4-c]pyridine-6(7H)-carboxylate]: at most 100 nM; for `O=C(CC1CCNC(C(F)(F)F)C1)N1CCc2c(C(F)(F)F)nn(Cc3ccc(F)cc3)c2C1` (centres unmarked) [Example 9-13, 1-(1-(4-Fluorobenzyl)-3-(trifluoromethyl)-4,5-dihydro-1H-pyrazolo[3,4-c]pyridin-6(7H)-yl)-2-(2-(trifluoromethyl)piperidin-4-yl)ethanone TFA salt]: at most 100 nM.

With `O=C(CC1CCN(c2ccccn2)CC1)N1CCc2c(C(F)(F)F)nn(Cc3ccc(F)cc3)c2C1` [Example 18-2, 1-(1-(4-Fluorobenzyl)-3-(trifluoromethyl)-4,5-dihydro-1H-pyrazolo[3,4-c]pyridin-6(7H)-yl)-2-(1-(pyridin-2-yl)piperidin-4-yl)ethanone TFA salt], the IC50 is at most 100 nM. As for `O=C(CC12CCC(C(=O)O)(CC1)CC2)N1CCc2c(C(F)(F)F)nn(Cc3ccc(Cl)cc3F)c2C1` [Example 5-12, 4-(2-(1-(4-Chloro-2-fluorobenzyl)-3-(trifluoromethyl)-4,5-dihydro-1H-pyrazolo[3,4-c]pyridin-6(7H)-yl)-2-oxoethyl)bicyclo[2.2.2]octane-1-carboxylic acid], the figure is at most 100 nM; as for `CCCC1CC(CC(=O)N2CCc3c(C(F)(F)F)nn(Cc4ccc(F)cc4)c3C2)CCN1C` (centres unmarked) [Example 10-8, 1-(1-(4-Fluorobenzyl)-3-(trifluoromethyl)-4,5-dihydro-1H-pyrazolo[3,4-c]pyridin-6(7H)-yl)-2-(1-methyl-2-propylpiperidin-4-yl)ethanone acid TFA salt], at most 100 nM. As for `COC(=O)[C@H]1CC[C@H](NC(=O)N2CCc3c(C(F)(F)F)nn(Cc4ccc(Cl)cc4F)c3C2)CC1` [Example 3-2, trans-Methyl 4-(1-(4-chloro-2-fluorobenzyl)-3-(trifluoromethyl)-4,5,6,7-tetrahydro-1H-pyrazolo[3,4-c]pyridine-6-carboxamido)cyclohexanecarboxylate], the figure is 100 to 250 nM; as for `O=C(C[C@H]1CC[C@@H](C(=O)O)CC1)N1CCc2c(C(F)(F)F)nn(Cc3ccc(F)cc3)c2C1` [Example 7-2, cis-4-(2-(1-(4-fluorobenzyl)-3-(trifluoromethyl)-4,5-dihydro-1H-pyrazolo[3,4-c]pyridin-6(7H)-yl)-2-oxoethyl)cyclohexanecarboxylic acid], at most 100 nM; as for `O=C(CN[C@H]1CC[C@H](C(=O)O)CC1)N1CCc2c(C(F)(F)F)nn(Cc3ccc(F)cc3)c2C1` [Example 13-31, trans-4-(2-(1-(4-Fluorobenzyl)-3-(trifluoromethyl)-4,5-dihydro-1H-pyrazolo[3,4-c]pyridin-6(7H)-yl)-2-oxoethylamino)cyclohexanecarboxylic acid TFA salt], at most 100 nM.
